Assay results as given in patent US20230150970A1, “AMINOPYRIMIDINE DERIVATIVES AND THEIR USE AS ARYL HYDROCARBON RECEPTOR MODULATORS” (DONG-A ST CO., LTD., priority 2020, published 2023).

What follows are compounds tested against T1, AhR (Homo sapiens, UniProt P35869) (assay: In Vitro Assay 1: XRE-luciferase reporter assay, antagonism in human cell line (HepG2)). Conditions: Assay 1: AhR-Luc Human Antagonism (IC50, nM), unmarked values: kynurenine 200 μM, 6 hours.
T1 sequence (P35869 11-848): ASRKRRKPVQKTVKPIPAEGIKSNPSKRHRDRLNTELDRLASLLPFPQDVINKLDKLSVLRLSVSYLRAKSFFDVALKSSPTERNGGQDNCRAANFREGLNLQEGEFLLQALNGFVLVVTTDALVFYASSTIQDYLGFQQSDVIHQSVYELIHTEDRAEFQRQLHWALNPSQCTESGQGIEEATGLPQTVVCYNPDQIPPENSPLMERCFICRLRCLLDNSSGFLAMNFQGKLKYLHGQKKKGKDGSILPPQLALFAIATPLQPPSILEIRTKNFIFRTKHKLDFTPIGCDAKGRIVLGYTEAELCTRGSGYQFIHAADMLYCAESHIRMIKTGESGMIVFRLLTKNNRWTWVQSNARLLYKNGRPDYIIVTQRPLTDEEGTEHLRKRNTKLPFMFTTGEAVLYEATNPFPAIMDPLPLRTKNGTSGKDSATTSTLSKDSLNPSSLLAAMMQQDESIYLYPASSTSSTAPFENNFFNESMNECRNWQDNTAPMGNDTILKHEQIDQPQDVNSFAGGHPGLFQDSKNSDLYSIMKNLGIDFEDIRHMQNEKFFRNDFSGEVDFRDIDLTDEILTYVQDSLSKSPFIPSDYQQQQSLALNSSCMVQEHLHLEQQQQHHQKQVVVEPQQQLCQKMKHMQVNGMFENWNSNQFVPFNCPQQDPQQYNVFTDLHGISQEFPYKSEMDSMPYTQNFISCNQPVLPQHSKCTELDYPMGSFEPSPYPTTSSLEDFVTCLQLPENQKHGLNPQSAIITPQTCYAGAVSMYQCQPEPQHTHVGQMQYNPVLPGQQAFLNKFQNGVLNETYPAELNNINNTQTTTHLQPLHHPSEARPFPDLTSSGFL

Row | SMILES | IC50 [nM]
1 | OCC1CCN(c2cc(-c3ccc(F)nc3)nc(-c3cccnc3)n2)CC1 [Example 318, (1-(6-(6-fluoropyridin-3-yl)-2-(pyridin-3-yl)pyrimidin-4-yl)piperidin-4-yl)methanol] | 10 to 100
2 | Cn1cc(-c2nc(-c3ccc(Cl)cc3)cc(N3CCN(S(C)(=O)=O)CC3)n2)cn1 [Example 321, 4-(4-chlorophenyl)-2-(1-methyl-1H-pyrazol-4-yl)-6-(4-(methylsulfonyl)piperazin-1-yl)pyrimidine] | 100 to 1000
3 | CS(=O)(=O)N1CCN(c2cc(-c3ccc(Cl)cc3)nc(-c3cncc(F)c3)n2)CC1 [Example 325, 4-(4-chlorophenyl)-2-(5-fluoropyridin-3-yl)-6-(4-(methylsulfonyl)piperazin-1-yl)pyrimidine] | 10 to 100
4 | O=S(=O)(C1CC1)N1CCN(c2cc(-c3ccc(Cl)cc3)nc(-c3cccnc3)n2)CC1 [Example 328, 4-(4-chlorophenyl)-6-(4-(cyclopropylsulfonyl)piperazin-1-yl)-2-(pyridin-3-yl)pyrimidine] | 10 to 100
5 | CS(=O)(=O)N1CC2CC1CN2c1cc(-c2ccc(Cl)cc2)nc(-c2cccnc2)n1 (stereo not shown) [Example 331, 2-(6-(4-chlorophenyl)-2-(pyridin-3-yl)pyrimidin-4-yl)-5-(methylsulfonyl)-2,5-diazabicyclo[2.2.1]heptane] | < 10
6 | Cn1nnc(-c2nc(-c3ccc(C(F)(F)F)cc3)cc(N3CC[C@H](O)C3)n2)n1 [Example 333, (S)-1-(2-(2-methyl-2H-tetrazol-5-yl)-6-(4-(trifluoromethyl)phenyl)pyrimidin-4-yl)pyrrolidin-3-ol] | > 1000
7 | Cn1nnc(-c2nc(-c3ccc(Cl)cc3)cc(N3CCN(S(C)(=O)=O)CC3)n2)n1 [Example 334, 4-(4-chlorophenyl)-2-(2-methyl-2H-tetrazol-5-yl)-6-(4-(methylsulfonyl)piperazin-1-yl)pyrimidine] | > 1000
8 | O=S(=O)(CCF)N1CCN(c2cc(-c3ccc(Cl)cc3)nc(-c3cccnc3)n2)CC1 [Example 335, 4-(4-chlorophenyl)-6-(4-((2-fluoroethyl)sulfonyl)piperazin-1-yl)-2-(pyridin-3-yl)pyrimidine] | < 10
9 | CS(=O)(=O)C1(CO)CCN(c2cc(-c3ccc(Cl)cc3)nc(-c3cccnc3)n2)CC1 [Example 337, (1-(6-(4-chlorophenyl)-2-(pyridin-3-yl)pyrimidin-4-yl)-4-(methylsulfonyl)piperidin-4-yl)methanol] | < 10
10 | CS(=O)(=O)N1CCN(c2cc(-c3ccc(C(F)(F)F)cc3)nc(-c3cccnc3)n2)CC1 [Example 341, 4-(4-(methylsulfonyl)piperazin-1-yl)-2-(pyridin-3-yl)-6-(4-(trifluoromethyl)phenyl)pyrimidine] | > 1000
11 | O[C@@H]1CN(c2cc(-c3ccc(C(F)(F)F)cc3)nc(-c3cccnc3)n2)C[C@@H]1O [Example 343, (3S,4R)-1-(2-(pyridin-3-yl)-6-(4-(trifluoromethyl)phenyl)pyrimidin-4-yl)pyrrolidine-3,4-diol] | > 1000
12 | Cn1cc(-c2nc(-c3ccc(Cl)cc3)cc(N3CCN(S(=O)(=O)CCO)CC3)n2)cn1 [Example 348, 2-((4-(6-(4-chlorophenyl)-2-(1-methyl-1H-pyrazol-4-yl)pyrimidin-4-yl)piperazin-1-yl)sulfonyl)ethanol] | 10 to 100
13 | CS(=O)(=O)C1(CO)CCN(c2cc(-c3ccc(C(F)(F)F)cc3)nc(-c3cccnc3)n2)CC1 [Example 351, (4-(methylsulfonyl)-1-(2-(pyridin-3-yl)-6-(4-(trifluoromethyl)phenyl)pyrimidin-4-yl)piperidin-4-yl)methanol] | > 1000
14 | Cn1cc(-c2nc(-c3ccc(C(F)(F)F)cc3)cc(N3CCN(S(=O)(=O)CCO)CC3)n2)cn1 [Example 353, 2-((4-(2-(1-methyl-1H-pyrazol-4-yl)-6-(4-(trifluoromethyl)phenyl)pyrimidin-4-yl)piperazin-1-yl)sulfonyl)ethanol] | 10 to 100

Now from value to compound:

Row | IC50 [nM] | SMILES
15 | > 1000 | Oc1ncccc1-c1cc(N2CC[C@H](O)C2)nc(-c2cccnc2)n1 [Example 317, (S)-3-(6-(3-hydroxypyrrolidin-1-yl)-2-(pyridin-3-yl)pyrimidin-4-yl)pyridin-2-ol]
16 | 10 to 100 | OC1CN(c2cc(-c3ccc(Cl)cc3)nc(-c3cccnc3)n2)C1 [Example 319, 1-(6-(4-chlorophenyl)-2-(pyridin-3-yl)pyrimidin-4-yl)azetidin-3-ol]
17 | 10 to 100 | OCC1CN(c2cc(-c3ccc(Cl)cc3)nc(-c3cccnc3)n2)C1 [Example 320, (1-(6-(4-chlorophenyl)-2-(pyridin-3-yl)pyrimidin-4-yl)azetidin-3-yl)methanol]
18 | > 1000 | Oc1cccc(-c2nc(-c3ccc(Cl)cc3)cc(N3CC[C@H](O)C3)n2)c1 [Example 322, (S)-1-(6-(4-chlorophenyl)-2-(3-hydroxyphenyl)pyrimidin-4-yl)pyrrolidin-3-ol]
19 | > 1000 | O[C@H]1CCN(c2cc(-c3ccc(Cl)cc3)nc(-c3ccncc3)n2)C1 [Example 324, (S)-1-(6-(4-chlorophenyl)-2-(pyridin-4-yl)pyrimidin-4-yl)pyrrolidin-3-ol]
20 | 10 to 100 | CS(=O)(=O)C1CCN(c2cc(-c3ccc(Cl)cc3)nc(-c3cccnc3)n2)CC1 [Example 326, 4-(4-chlorophenyl)-6-(4-(methylsulfonyl)piperidin-1-yl)-2-(pyridin-3-yl)pyrimidine]
21 | 100 to 1000 | O[C@H]1CCN(c2cc(-c3ccc(Cl)cc3)nc(-c3ccnnc3)n2)C1 [Example 329, (S)-1-(6-(4-chlorophenyl)-2-(pyridazin-4-yl)pyrimidin-4-yl)pyrrolidin-3-ol]
22 | 10 to 100 | OC1CCCN(c2cc(-c3ccc(Cl)cc3)nc(-c3cccnc3)n2)CC1 (stereo not shown) [Example 330, 1-(6-(4-chlorophenyl)-2-(pyridin-3-yl)pyrimidin-4-yl)azepan-4-ol]
23 | > 1000 | Cn1nnc(-c2nc(-c3ccc(Cl)cc3)cc(N3CC[C@H](O)C3)n2)n1 [Example 332, (S)-1-(6-(4-chlorophenyl)-2-(2-methyl-2H-tetrazol-5-yl)pyrimidin-4-yl)pyrrolidin-3-ol]
24 | 100 to 1000 | O[C@H]1CCN(c2cc(-c3ccc(Cl)cc3)nc(-c3cnoc3)n2)C1 [Example 336, (S)-1-(6-(4-chlorophenyl)-2-(isoxazol-4-yl)pyrimidin-4-yl)pyrrolidin-3-ol]
25 | 100 to 1000 | OC1CCCCN(c2cc(-c3ccc(Cl)cc3)nc(-c3cccnc3)n2)C1 (stereo not shown) [Example 338, 1-(6-(4-chlorophenyl)-2-(pyridin-3-yl)pyrimidin-4-yl)azepan-3-ol]
26 | < 10 | O[C@H]1CCN(c2cc(-c3ccc(C(F)(F)F)cc3)nc(-c3cccnc3)n2)C1 [Example 340, (S)-1-(2-(pyridin-3-yl)-6-(4-(trifluoromethyl)phenyl)pyrimidin-4-yl)pyrrolidin-3-ol]
27 | > 1000 | O[C@H]1CCN(c2cc(-c3ccc(Cl)cc3)nc(-c3cnc(F)c(F)c3)n2)C1 [Example 342, (S)-1-(6-(4-chlorophenyl)-2-(5,6-difluoropyridin-3-yl)pyrimidin-4-yl)pyrrolidin-3-ol]
28 | < 10 | O[C@H]1CCN(c2cc(-c3ccc(Cl)cc3)nc(-c3cncnc3)n2)C1 [Example 344, (S)-1-(6-(4-chlorophenyl)-[2,5′-bipyrimidin]-4-yl)pyrrolidin-3-ol]
29 | 100 to 1000 | O[C@H]1CCN(c2cc(-c3ccc(Cl)cc3)nc(-c3ccc(F)nc3)n2)C1 [Example 345, (S)-1-(6-(4-chlorophenyl)-2-(6-fluoropyridin-3-yl)pyrimidin-4-yl)pyrrolidin-3-ol]
30 | 10 to 100 | O[C@H]1CCN(c2cc(-c3ccc(Cl)cc3)nc(-c3cccnc3F)n2)C1 [Example 346, (S)-1-(6-(4-chlorophenyl)-2-(2-fluoropyridin-3-yl)pyrimidin-4-yl)pyrrolidin-3-ol]
31 | > 1000 | O[C@H]1CCN(c2cc(-c3ccc(Cl)cc3)nc(-c3ccccn3)n2)C1 [Example 347, (S)-1-(6-(4-chlorophenyl)-2-(pyridin-2-yl)pyrimidin-4-yl)pyrrolidin-3-ol]
32 | < 10 | O[C@H]1CCN(c2cc(-c3ccc(C(F)(F)F)cc3)nc(-c3cnsc3)n2)C1 [Example 350, (S)-1-(2-(isothiazol-4-yl)-6-(4-(trifluoromethyl)phenyl)pyrimidin-4-yl)pyrrolidin-3-ol]
33 | > 1000 | CN(C)C1CN(c2cc(-c3ccc(Cl)cc3)nc(-c3cccnc3)n2)CCC1O (stereo not shown) [Example 354, 1-(6-(4-chlorophenyl)-2-(pyridin-3-yl)pyrimidin-4-yl)-3-(dimethylamino)piperidin-4-ol]
34 | 100 to 1000 | CN(C)C1CC(O)CN(c2cc(-c3ccc(Cl)cc3)nc(-c3cccnc3)n2)C1 (stereo not shown) [Example 355, 1-(6-(4-chlorophenyl)-2-(pyridin-3-yl)pyrimidin-4-yl)-5-(dimethylamino)piperidin-3-ol]
